According to patent US4428957A, “6-Isothiocyano-5-methoxy-2-tert.-butylbenzthiazole and a method of controlling ruminant liver flukes therewith” (Ciba-Geigy Corporation, priority 1978, dated 1984):
Read-outs that look alike come from different tables or passages of the source.

Assays:
[1] = Compatibility in the case of the sheep; settings: in vivo; for MTD at 336 h: single dose into the rumen, 14 days observation, read-out: MTD (maximum tolerated dose)
Procedure: (§1) The active substances are introduced in the form of a suspension, by means of a stomach probe or by injection, into the rumen of the experimental animals. Three to five sheep are used per test and per dose, each animal being treated with just one single dose. The sheep are kept under observation during 14 days after the treatment, and they are weighed at regular intervals. Any clinical symptoms and cases of death occurring are recorded during this period. Similar sheep (with regard to breed, age and weight) which have not been treated with the respective active substance are kept as control animals together with the treated experimental animals. The same parameters are recorded in the case of the control sheep as in the case of the treated sheep. The minimum effective dose (MED) of 25 mg/kg (see Table) in the case of the compound of formula I is effective in sheep not only against Fasciola hepatica but also against nematodes such as Haemonchus concortus, Trichostrongylus colubriformis and Ostertagia circumcincta, and against cestodes such as Moniezia benedeni.

Fasciola hepatica = test: Test on sheep infested with Fasciola hepatica; assay type: in vivo, Fasciola hepatica (host: sheep); settings: for minimal effective dose: Fasciola hepatica
Source text: The active substance is introduced in the form of a suspension, by means of a stomach probe or by injection, into the rumen of sheep which have been artificially infested with Fasciola hepatica. Three animals are used per test and per dose, each animal being treated with just one single dose. An initial evaluation is made by comparing the numbers of worm eggs excreted in the droppings of the sheep before and after the treatment. The sheep are killed and dissected three to four weeks after the treatment. The second evaluation is on the basis of a count of the liver flukes which have remained behind in the hepatic ducts after the treatment. Simultaneously and similarly infested but untreated sheep are used as a control or comparison. The difference in the numbers of liver flukes in the two groups is a measure of the degree of effectiveness of the active substance tested.
as §1

Moniezia benedeni = test: Test on sheep infested with cestodes: Moniezia benedeni; assay type: in vivo, Moniezia benedeni (host: sheep); settings: read-out: minimum effective dose (MED), effective also against Moniezia benedeni
Source text: The active substance is introduced in the form of a suspension, by means of a stomach probe or by injection, into the rumen of sheep which are infested with cestodes such as Moniezia benedeni. Three animals are used per test and per dose, each sheep being treated with just one single dose. The sheep are killed and dissected seven to ten days after the treatment. The evaluation is made on the basis of a count of the worms which have remained behind in the intestine after the treatment. Sheep which have been simultaneously and similarly infested but not treated with the active substance are used as a control or comparison.

[2] = tested on: Trichostrongylus colubriformis; test: Test on sheep infected with nematodes: Trichostrongylus colubriformis; assay type: in vivo, Trichostrongylus colubriformis (host: sheep); settings: read-out: minimum effective dose (MED), effective also against Trichostrongylus colubriformis
Source text: (§2) The active substance is introduced in the form of a suspension by means of a stomach probe, or by injection, into the rumen of sheep which have been artificially infested with nematodes such as Haemonchus controtus and Trichostrongylus colubriformis. Three animals are used per test and per dose, each sheep being treated with just one single dose. An initial evaluation is made by comparing the numbers of worm eggs excreted in the dropping of the sheep before and after the treatment. Seven to ten days after the treatment, the sheep are killed and dissected. A second evaluation is then made by carrying out a count of the worm which have remained behind in the intestine after the treatment. Sheep which have been simultaneously and similarly infested but not treated with the active substance are used as a control or comparison.

Schistosoma mansoni = test: schistosomiasis: Schistosoma mansoni in mice and Syrian hamsters; assay type: in vivo, Schistosoma mansoni (host: mice and Syrian hamsters)
Litomosoides carinii = test: filariasis: Litomosoides carinii in Mongolian jirds and multimammate rats; assay type: in vivo
Brugia malayi = test: filariasis: Brugia malayi in multimammate rats; assay type: in vivo, Brugia malayi (host: multimammate rats)
[3] = tested on: parasitic helminths, especially Nematodes and Trematodes; test: anthelmintic activity against parasitic helminths, various test models; assay type: in vivo
Nipprostrongylus species = test: gastro-intestinal helminths: tests with various Nipprostrongylus species; assay type: in vivo; settings: compound and its non-toxic salts
Ostertagia circumcincta = test: Test on sheep infected with nematodes: Ostertagia circumcincta; assay type: in vivo, Ostertagia circumcincta (host: sheep); settings: Teladorsagia circumcincta, read-out: minimum effective dose (MED), effective also against Ostertagia circumcincta
Source text: as §2

Dipetalonea viteae = test: filariasis: Dipetalonea viteae in Mongolian jirds and multimammate rats; assay type: in vivo
Haemonchus contortus = test: Test on sheep infected with nematodes: Haemonchus contortus; assay type: in vivo, Haemonchus contortus (host: sheep); settings: read-out: minimum effective dose (MED), effective also against Haemonchus concortus
Source text: as §2

Schistosoma japonicum = test: schistosomiasis: Schistosoma japonicum in dogs; assay type: in vivo, Schistosoma japonicum (host: dogs)
Brugia pahangi = test: filariasis: Brugia pahangi in multimammate rats; assay type: in vivo, Brugia pahangi (host: multimammate rats)
[4] = read-out: MED (minimum effective dose)

CC(C)(C)c1nc2ccc(N=C=S)cc2s1 [No. 2, reference compound]
MTD at 336 h [1]: 200 mg/kg | minimal effective dose (Fasciola hepatica; [4]): 100 mg/kg

COc1cc2nc(C(C)C)sc2cc1N=C=S [No. 3, reference compound]
MTD at 336 h [1]: 200 mg/kg | minimal effective dose (Fasciola hepatica; [4]): > 100 mg/kg

CC(C)c1nc2ccc(N=C=S)cc2s1 [No. 4, reference compound]
MTD at 336 h [1]: 200 mg/kg | minimal effective dose (Fasciola hepatica; [4]): > 200 mg/kg

COc1cc2nc(C(C)(C)C)sc2cc1N=C=S [compound of the formula I, 6-isothiocyano-5-methoxy-2-tert.-butyl-benzothiazole]
minimal effective dose (Moniezia benedeni): 25 mg/kg | minimal effective dose [2]: 25 mg/kg | antischistosomal effects (Schistosoma mansoni): pronounced antischistosomal effects | potency against filariasis, micro- and macrofilariae (Litomosoides carinii): pronounced potency | potency against filariasis, micro- and macrofilariae (Brugia malayi): pronounced potency | anthelmintic properties ([3]; general): generally good anthelmintic properties | activity against filariasis, schistosomiasis and gastro-intestinal helminths ([3]; various test models): excellent activity | anthelminthic activities against a broad variety of parasitic helminths ([3]; warm-blooded organisms, compound and non-toxic salts): extremely potent anthelminthic activities | selectivity ratio ([1]; liver flukes, read-out: therapeutic index (maximum tolerated dose/minimum effective dose)): ~13 | MTD at 336 h [1]: 320 mg/kg | properties against gastro-intestinal helminths (Nipprostrongylus species): surprising properties against gastro-intestinal helminths | minimal effective dose (Fasciola hepatica; [4]): 25 mg/kg | action against liver flukes in sheep (Fasciola hepatica; sheep): excellent action against liver flukes in sheep | minimal effective dose (Fasciola hepatica; sheep, read-out: minimum effective dose (MED)): 25 mg/kg | minimal effective dose (Ostertagia circumcincta): 25 mg/kg | potency against filariasis, micro- and macrofilariae (Dipetalonea viteae): pronounced potency | minimal effective dose (Haemonchus contortus): 25 mg/kg | antischistosomal effects (Schistosoma japonicum): pronounced antischistosomal effects | potency against filariasis, micro- and macrofilariae (Brugia pahangi): pronounced potency
